According to ChEMBL document CHEMBL3351513, “Norbornane-based nucleoside and nucleotide analogues locked in North conformation” (Bioorg Med Chem, 2015):
Active and inactive are the calls of the source. No cut-off for these calls is given here.

Legend:
L1210 = test: Cytostatic activity against mouse L1210 cells after 48 hrs by Coulter counting; details: L1210, 48 h
CCRF-CEM = test: Cytostatic activity against human CEM cells after 72 hrs by Coulter counting
HeLa = test: Cytostatic activity against human HeLa cells after 72 hrs by Coulter counting
Influenza A virus [1] = test: Antiviral activity against influenza A virus H1N1 infected in MDCK cells assessed as inhibition of virus-induced cytopathic effect at 100 uM; assay type: functional, organism-based
Felid alphaherpesvirus 1 [2] = test: Antiviral activity against Feline herpesvirus 1 infected in cat CRFK cells assessed as inhibition of virus induced cytopathicity at 100 uM; assay type: functional, organism-based
[3] = test system: Human immunodeficiency virus 1; test: Antiviral activity against HIV1 3B infected in human CEM cells assessed as inhibition of virus-induced syncytium formation at 100 uM by microscopy; assay type: functional, organism-based; details: CCRF-CEM
[4] = test system: Human immunodeficiency virus 2; test: Antiviral activity against HIV2 ROD infected in human CEM cells assessed as inhibition of virus-induced syncytium formation at 100 uM by microscopy; assay type: functional, organism-based; details: ISOLATE ROD, CCRF-CEM
[5] = Cytotoxicity against african green monkey Vero cells; assay type: cell-based; details: chlorocebus sabaeus
Coxsackievirus B4 = test: Antiviral activity against Coxsackievirus B4 infected in african green monkey Vero cells assessed as inhibition of virus-induced cytopathicity; assay type: functional, organism-based; details: for EC50: Enterovirus B
Influenza A virus [6] = test: Antiviral activity against influenza A virus H1N1 infected in MDCK cells assessed as inhibition of virus-induced cytopathic effect
[7] = Inhibition of human PI4K3alpha expressed in Escherichia coli BL21 after 60 mins by ADP-GloTM Kinase Assay
[8] = Cytotoxicity against cat CRFK cells; assay type: cell-based, Felis catus
Felid alphaherpesvirus 1 [9] = test: Antiviral activity against Feline herpesvirus 1 infected in cat CRFK cells assessed as inhibition of virus induced cytopathicity; details: Felid alphaherpesvirus 1, CRFK
[10] = Cytotoxicity against human CEM cells infected with HIV1; assay type: cell-based, CCRF-CEM; details: CEM cells infected with HIV-1
[11] = Inhibition of human PI4K3beta expressed in Escherichia coli BL21 after 60 mins by ADP-GloTM Kinase Assay
[12] = Cytotoxicity against human CEM cells infected with HIV2; assay type: cell-based, CCRF-CEM
[13] = test system: Human immunodeficiency virus 1; test: Antiviral activity against HIV1 3B infected in human CEM cells assessed as inhibition of virus-induced syncytium formation by microscopy; details: Human immunodeficiency virus 1, 3B, CCRF-CEM
MDCK = test: Cytotoxicity against MDCK cells; details: Canis lupus familiaris
[14] = test system: Human immunodeficiency virus 2; test: Antiviral activity against HIV2 ROD infected in human CEM cells assessed as inhibition of virus-induced syncytium formation by microscopy; details: Human immunodeficiency virus 2, ISOLATE ROD, CCRF-CEM

| Structure (SMILES) | IC50 (L1210) | IC50 (CCRF-CEM) | IC50 (HeLa) | inhibition (Coxsackievirus B4) | other results |
| --- | --- | --- | --- | --- | --- |
| Nc1nc(NC2CC2)c2ncn([C@@H]3C[C@@]4(CO)CC[C@@H]3C4)c2n1 (relative stereo) | 146 µM | 124 µM | 101 µM | – | – |
| COC(=O)[C@H](C)NP(=O)(OC[C@]12CC[C@H](C1)[C@H](n1cnc3c(NC4CC4)ncnc31)C2)Oc1ccccc1 (relative stereo) | 129 µM | 78 µM | 136 µM | – | – |
| COC(=O)[C@H](C)NP(=O)(OC[C@]12CC[C@H](C1)[C@H](n1cnc3c(N)ncnc31)C2)Oc1ccccc1 (relative stereo) | 160 µM | ≥ 200 µM | > 200 µM | – | inhibition (Influenza A virus [1]): inactive; inhibition (Felid alphaherpesvirus 1 [2]): inactive; inhibition [3]: inactive; inhibition [4]: inactive |
| O=c1[nH]cc(F)c(=O)[nH]1 [FLUOROURACIL] | – | – | 2.6 µM | – | – |
| OC[C@]12CC[C@H](C1)[C@H](n1cnc3c(Cl)ncnc31)C2 (relative stereo) | – | – | – | – | CC50 [5]: > 359 µM; EC50 (Coxsackievirus B4): 25 µM |
| OC[C@]12CC[C@H](C1)[C@H](n1cnc3c(=S)[nH]cnc31)C2 (relative stereo) | – | – | – | inactive | – |
| Nc1nc(N)c2ncn([C@@H]3C[C@@]4(CO)CC[C@@H]3C4)c2n1 (relative stereo) | 179 µM | 174 µM | 190 µM | – | – |
| OC[C@]12CC[C@H](C1)[C@H](n1cnc3c(NC4CC4)ncnc31)C2 (relative stereo) | – | – | – | inactive | – |
| CN(C)c1ncnc2c1ncn2[C@@H]1C[C@@]2(CO)CC[C@@H]1C2 (relative stereo) | – | – | – | inactive | – |
| Nc1nc(Cl)c2ncn([C@@H]3C[C@@]4(CO)CC[C@@H]3C4)c2n1 (relative stereo) | 139 µM | 88 µM | > 340 µM | – | CC50 [5]: > 359 µM; EC50 (Coxsackievirus B4): 31 µM |
| Nc1ncnc2c1ncn2[C@@H]1C[C@@]2(CO)CC[C@@H]1C2 | 408 µM | > 386 µM | 609 µM | inactive | EC50 (Influenza A virus [6]): 179 µM; IC50 [7]: > 100 µM; CC50 [8]: > 386 µM; EC50 (Felid alphaherpesvirus 1 [9]): 58 µM; CC50 [10]: > 386 µM; IC50 [11]: > 100 µM; CC50 [12]: > 386 µM; EC50 [13]: 100 µM; EC50 (MDCK): > 386 µg/mL; EC50 [14]: 231 µM |
